Measurements as given in publication PMC11994961, “In Vivo pharmacokinetic interactions of ribociclib with rivaroxaban and apixaban in rats: implications for increased drug exposure and dose adjustments” (Frontiers in Pharmacology, 2025).
Like-named read-outs stand apart in the source and are kept apart here.

How the values were obtained:
[1] = parameters: method as in Wang et al., 2023; conditions: rats, with almonertinib; ref Wang et al., 2023; cited from earlier work
[2] = Pharmacokinetic study of apixaban in rats, alone and after ribociclib (UPLC-MS/MS plasma levels); assay type: in vivo, Sprague-Dawley rats; conditions: for AUC(0-inf) / Cmax / Tmax / half-life / CL/F / MRT inf / MRT last / Vd/F: po, 0.5 mg/kg; for CL/F: read-out: CLz/F (converted); for MRT inf: read-out: MRT0- ∞; for MRT last: read-out: MRT0-t; for Vd/F: read-out: Vz/F
Procedure: Experimental animals were randomly divided into nine groups (n = 6, Table 1). Ribociclib was suspended in methylcellulose (MC), rivaroxaban was prepared in hydroxypropyl methylcellulose (HPMC), and apixaban was suspended in 5% DMSO in water. To achieve steady-state blood concentrations, a drug typically requires five to seven half-lives. Based on this principle, ribociclib was administered orally for eight consecutive days, while rivaroxaban and apixaban were administered orally for five consecutive days to ensure steady-state concentrations were reached before further analysis.
Approximately 0.1 mL of blood was collected into heparinized tubes via the orbitalat specified time points before and after the final drug administration. For apixaban, blood samples were collected at 0, 0.083, 0.167, 0.25, 0.333, 0.5, 0.75, 1, 3, 5, 7, 10, and 12 h. For rivaroxaban, sampling was conducted at 0, 0.167, 0.333, 0.5, 0.75, 1.5, 2, 3, 4, 5, 6, 8, 10, 12, and 24 h. For ribociclib, samples were taken at 0, 0.5, 1, 2, 4, 5, 6, 8, 10, 12, 24, and 48 h. Blood samples were centrifuged at 3,500 rpm for 10 min, and the supernatant was collected and stored at −80°C until processing for UPLC-MS/MS.
Apixaban and rivaroxaban concentrations in plasma samples were determined using our previously established UPLC-MS/MS method ([Wang et al., 2023]). Ribociclib concentrations were quantified using an LC-30A UPLC system (Shimadzu, Kyoto, Japan) coupled with a Sciex Triple Quad 5500 tandem quadrupole mass spectrometer (AB Sciex, Framingham, MA, United States) equipped with an electrospray ionization interface. Chromatographic separation was performed using a Welch Boltimate column (2.1 mm × 100 mm, 2.7 μm) maintained at 40°C. The mobile phase was composed of water containing 0.1% formic acid (phase A) and acetonitrile (phase B). The flow rate was held constant at 0.3 mL/min. The gradient elution protocol was as follows: 0–2.5 min, 60% B; 2.5–3.5 min, 60%–90% B; 3.5–5.5 min, 90% B; 5.5–5.6 min, 90%–60% B; 5.6–6.6 min, 60% B. The injection volume was 1 μL.
Pharmacokinetic parameters were calculated based on a non-compartmental model using DAS 2.1.1 Software (Mathematical Pharmacology Professional Committee of China, Shanghai, China). The area under the concentration–time curve (AUC), maximum plasma concentration (Cmax), time to maximum plasma concentration (Tmax), the time required to eliminate half of the plasma drug concentration (t1/2), clearance of drug plasma volume per unit time (CLz/F), apparent volume distribution (Vz/F), mean residence time (MRT) and the absorption rate constant (Ka) are all expressed as mean ± standard deviation (SD). SPSS 25.0 statistical software (SPSS Inc., Chicago, IL, United States) was applied to statistically analyze the mainpharmacokinetic parameters. Shapiro-Wilk test was used to assess whether the data were normally distributed, t test was used for parameters conforming to the normal distribution, and Mann-Whitney U test was used for parameters not conforming to the normal distribution. Statistical comparisons were conducted using a analysis of variance, t-test or nonparametric rank-sum test depending on the data type. A P-value <0.05 was deemed statistically significant.

[3] = parameters: method as in Hindley et al., 2023; conditions: ref Hindley et al., 2023; cited from earlier work
[4] = API 0.5 mg/kg after multiple doses of RIBO vs API alone
[5] = Sprague-Dawley, rat, plasma, API 0.5 mg/kg after RIBO 60 mg/kg for 8 days
[6] = Sprague-Dawley, rat, plasma, oral API 0.5 mg/kg alone

**Q.** With COc1ccc(-n2nc(C(N)=O)c3c2C(=O)N(c2ccc(N4CCCCC4=O)cc2)CC3)cc1 [API, apixaban] as the compound, how does the “increase in AUC” value [1] read?
**A.** over three fold increases

**Q.** And the “increase in Cmax” value [1]?
**A.** over three fold increases

**Q.** What about the AUC(0-t) ([2]; API 0.5 mg/kg after RIBO 60 mg/kg for 8 days) of the same compound?
**A.** 608.21 ± 196.17 ng·h/mL

**Q.** And the “CLz/F was decreased by” value [2, 4]?
**A.** 32.23%

**Q.** And the “difference in AUC0-t” value [2, 4]?
**A.** not statistically significant

**Q.** What about the “difference in Cmax” value [2, 4] of the same compound?
**A.** not statistically significant

**Q.** And the “difference in Tmax” value [2, 4]?
**A.** not statistically significant

**Q.** And the “increase of MRT0- ∞” value [2, 4]?
**A.** 61.41%

**Q.** And the “increase of MRT0-t” value [2, 4]?
**A.** 14.45%

**Q.** And the “increase of t1/2z” value [2, 4]?
**A.** 115.90%

**Q.** And the AUC(0-t) ([2]; Sprague-Dawley, rat, plasma, oral API 0.5 mg/kg alone, read-out: AUC0-t)?
**A.** 409 ± 55.3 ng·h/mL

**Q.** What about the AUC(0-inf) [2, 5] of the same compound?
**A.** 675 ± 221 ng·h/mL

**Q.** And the Cmax [2, 5]?
**A.** 156 ± 42.4 ng/mL

**Q.** And the Tmax [2, 5]?
**A.** 0.75 ± 0.16 h

**Q.** What about the half-life [2, 5] of the same compound?
**A.** 5.16 ± 3.22 h

**Q.** And the CL/F [2, 5]?
**A.** 13.7 mL/min/kg

**Q.** What about the MRT inf [2, 5] of the same compound?
**A.** 4.81 ± 2.07 h

**Q.** What about the MRT last [2, 5] of the same compound?
**A.** 3.01 ± 0.3 h

**Q.** And the Vd/F [2, 5]?
**A.** 5.57 ± 2.63 L/kg

**Q.** And the AUC(0-inf) [2, 6]?
**A.** 420 ± 54.2 ng·h/mL

**Q.** What about the Cmax [2, 6] of the same compound?
**A.** 140 ± 29.4 ng/mL

**Q.** What about the Tmax [2, 6] of the same compound?
**A.** 0.88 ± 0.14 h

**Q.** And the half-life [2, 6]?
**A.** 2.39 ± 0.53 h

**Q.** What about the CL/F [2, 6] of the same compound?
**A.** 20.2 mL/min/kg

**Q.** What about the MRT inf [2, 6] of the same compound?
**A.** 2.98 ± 0.32 h

**Q.** What about the MRT last [2, 6] of the same compound?
**A.** 2.63 ± 0.1 h

**Q.** What about the Vd/F [2, 6] of the same compound?
**A.** 4.16 ± 1.07 L/kg

**Q.** What about the plasma protein binding [3] of the same compound?
**A.** approximately 87%
